Test results taken from US20220281876A1, “DEGRADATION OF BRUTON'S TYROSINE KINASE (BTK) BY CONJUGATION OF BTK INHIBITORS WITH E3 LIGASE LIGAND AND METHODS OF USE” (BEIGENE, LTD., priority 2019, published 2022).

biological target: T1, BTK (Homo sapiens, UniProt Q06187); assay: BTK cell degradation in Ramos cells (total BTK ELISA); format: cell-based; details: 16 h incubation, FastScan total BTK ELISA
T1 construct: endogenous in cells; host or cells: Ramos cells
Method: Ramos cells are treated with compounds diluted in 0.1% DMSO, dilution is done according to the following protocol: (1) make 1000x stock solution in DMSO from 10 mM by 5-fold dilution, total 7 doses were included; (2) make 10x solution in cell culture medium by transferring 1 ul 1000x stock solution into 99 ul medium; (3) 11 ul of 10× solution is added to cells and incubate for 16 h.
Cells in 96 well plate are harvested by centrifugation (1200 rpm), and wash once with ice-cold PBS. Then, 100 ul 1×cell extraction buffer is added in each well. The cells are placed on a shaker for 20 min at 4° C.; 5 ul lysate is transferred to 45 ul of 1×cell extraction buffer in ELISA plate, and 50 ul of the antibody cocktail is added in each well; seal the plate and incubate 1 hour at room temperature on a plate shaker; medium is discarded from the plate, tap the plated on a paper towel, wash 3×200 ul ELISA wash buffer; add 100 ul of TMB to each well and incubate the plate in the dark for 15 min at room temperature on a shaker; add 100 ul of STOP solution to each well; read absorbance at 450 nm. The BTK ELISA assay was performed using FastScan total BTK ELISA kit (Cell Signaling Cat #36609).

T1 sequence (Q06187 whole entry): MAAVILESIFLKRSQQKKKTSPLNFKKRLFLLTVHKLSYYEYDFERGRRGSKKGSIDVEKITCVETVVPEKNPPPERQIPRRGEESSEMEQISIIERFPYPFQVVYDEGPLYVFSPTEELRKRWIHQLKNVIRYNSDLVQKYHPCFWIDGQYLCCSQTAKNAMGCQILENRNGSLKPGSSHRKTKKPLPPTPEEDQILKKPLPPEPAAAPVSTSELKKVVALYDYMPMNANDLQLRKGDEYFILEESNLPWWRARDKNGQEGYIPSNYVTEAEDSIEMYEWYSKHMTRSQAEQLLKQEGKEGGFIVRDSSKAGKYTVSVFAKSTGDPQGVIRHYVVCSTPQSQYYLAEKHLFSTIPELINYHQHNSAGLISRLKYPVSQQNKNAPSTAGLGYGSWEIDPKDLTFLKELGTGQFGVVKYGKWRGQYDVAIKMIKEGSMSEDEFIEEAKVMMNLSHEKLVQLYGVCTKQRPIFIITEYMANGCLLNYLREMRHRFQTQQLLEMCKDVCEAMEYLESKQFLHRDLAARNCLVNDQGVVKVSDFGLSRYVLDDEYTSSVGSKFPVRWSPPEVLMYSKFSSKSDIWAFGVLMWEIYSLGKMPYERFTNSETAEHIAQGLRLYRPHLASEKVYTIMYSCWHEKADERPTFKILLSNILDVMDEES

Row | DC50 | SMILES
1 | > 10 µM | NC(=O)c1c(-c2ccc(Oc3ccccc3)cc2)nn2c1NCC[C@H]2C1CCN(C(=O)c2cn(CCOCCNc3cccc4c3C(=O)N(C3CCC(=O)NC3=O)C4=O)nn2)CC1 (stereo partly drawn) [Example 2, (7S)-7-(1-(1-(2-(2-((2-(2,6-dioxopiperidin-3-yl)-1,3-dioxoisoindolin-4-yl)amino)ethoxy)ethyl)-1H-1,2,3-triazole-4-carbonyl)piperidin-4-yl)-2-(4-phenoxyphenyl)-4,5,6,7-tetrahydropyrazolo[1,5-a]pyrimidine-3-carboxamide]
2 | > 10 µM | NC(=O)c1c(-c2ccc(Oc3ccccc3)cc2)nn2c1NCC[C@H]2C1CCN(C(=O)c2cn(CCOCCOCCNc3cccc4c3C(=O)N(C3CCC(=O)NC3=O)C4=O)nn2)CC1 (stereo partly drawn) [Example 3, (7S)-7-(1-(1-(2-(2-(2-((2-(2,6-dioxopiperidin-3-yl)-1,3-dioxoisoindolin-4-yl)amino)ethoxy)ethoxy)ethyl)-1H-1,2,3-triazole-4-carbonyl)piperidin-4-yl)-2-(4-phenoxyphenyl)-4,5,6,7-tetrahydropyrazolo[1,5-a]pyrimidine-3-carboxamide]
3 | > 10 µM | NC(=O)c1c(-c2ccc(Oc3ccccc3)cc2)nn2c1NCC[C@H]2C1CCN(C(=O)c2cn(CCOCCOCCCc3cccc4c3CN(C3CCC(=O)NC3=O)C4=O)nn2)CC1 (stereo partly drawn) [Example 5, (7S)-7-(1-(1-(2-(2-(3-(2-(2,6-dioxopiperidin-3-yl)-1-oxoisoindolin-4-yl)propoxy)ethoxy)ethyl)-1H-1,2,3-triazole-4-carbonyl)piperidin-4-yl)-2-(4-phenoxyphenyl)-4,5,6,7-tetrahydropyrazolo[1,5-a]pyrimidine-3-carboxamide]

The next lines start with the molecule.

Row | SMILES | DC50
4 | NC(=O)c1c(-c2ccc(Oc3ccccc3)cc2)nn2c1NCCC2C1CCN(C(=O)CC2CCC(N3CCN(c4ccc5c(c4)C(=O)N(C4CCC(=O)NC4=O)C5=O)CC3)CC2)CC1 (stereo in doubt) [Example 147, (7R)-7-(1-(2-(4-(4-(2-(2,6-dioxopiperidin-3-yl)-1,3-dioxoisoindolin-5-yl)piperazin-1-yl)cyclohexyl)acetyl)piperidin-4-yl)-2-(4-phenoxyphenyl)-4,5,6,7-tetrahydropyrazolo[1,5-a]pyrimidine-3-carboxamide] | 0.244 µM
5 | NC(=O)c1c(-c2ccc(Oc3ccccc3)cc2)nn2c1NCC[C@H]2C1CCN(C(=O)c2cn(CCOCCCc3cccc4c3CN(C3CCC(=O)NC3=O)C4=O)nn2)CC1 (stereo partly drawn) [Example 1, (7S)-7-(1-(1-(2-(3-(2-(2,6-dioxopiperidin-3-yl)-1-oxoisoindolin-4-yl)propoxy)ethyl)-1H-1,2,3-triazole-4-carbonyl)piperidin-4-yl)-2-(4-phenoxyphenyl)-4,5,6,7-tetrahydropyrazolo[1,5-a]pyrimidine-3-carboxamide] | > 10 µM
6 | NC(=O)c1c(-c2ccc(Oc3ccccc3)cc2)nn2c1NCC[C@H]2C1CCN(C(=O)c2cn(CCOCCOCC#Cc3cccc4c3CN(C3CCC(=O)NC3=O)C4=O)nn2)CC1 (stereo partly drawn) [Example 4, (7S)-7-(1-(1-(2-(2-((3-(2-(2,6-dioxopiperidin-3-yl)-1-oxoisoindolin-4-yl)prop-2-yn-1-yl)oxy)ethoxy)ethyl)-1H-1,2,3-triazole-4-carbonyl)piperidin-4-yl)-2-(4-phenoxyphenyl)-4,5,6,7-tetrahydropyrazolo[1,5-a]pyrimidine-3-carboxamide] | > 10 µM
7 | NC(=O)c1c(-c2ccc(Oc3ccccc3)cc2)nn2c1NCC[C@H]2C1CCN(C(=O)c2cn(CCOCCOCCOCCCc3cccc4c3CN(C3CCC(=O)NC3=O)C4=O)nn2)CC1 (stereo partly drawn) [Example 6, (7S)-7-(1-(1-(2-(2-(2-(3-(2-(2,6-dioxopiperidin-3-yl)-1-oxoisoindolin-4-yl)propoxy)ethoxy)ethoxy)ethyl)-1H-1,2,3-triazole-4-carbonyl)piperidin-4-yl)-2-(4-phenoxyphenyl)-4,5,6,7-tetrahydropyrazolo[1,5-a]pyrimidine-3-carboxamide] | 0.242 µM
